The results in this text go back to US20100313310A1, “METHOD FOR IMPROVED UTILIZATION OF THE PRODUCTION POTENTIAL OF TRANSGENIC PLANTS” (priority 2006, published 2010).

In series [1] the test system is cotton aphid (Aphis gossypii). Nature of the series: Spray treatment of transgenic cotton (line DP444 BG/RR) populated by cotton aphid, kill in %, Colby synergy. The class given is in vivo. The note with it: spirotetramate at 100 ppm by spray where applied. The text has this:
(§1) This is based on the following calculation base and assumption (“Colby formula”): […]
(§2) If • X is the kill rate, expressed in % of the untreated and not transgenically modified control, when employing the active compound A at an application rate of m g/ha or at a concentration of m ppm, • Y is the kill rate, expressed in % of the untreated and not transgenically modified control, when using a transgenic plant and • E is the kill rate, expressed in % of the untreated and not transgenically modified control, when employing active compound A and using a transgenically modified plant, the application rate being m and n g/ha or the concentration being m and n ppm, then
(§3) If the actual kill rate (i.e. the activity observed) is higher than the calculated one, the combination of active compound treatment and transgenically modified plant is superadditive in its kill, i.e. a synergistic effect between the active compound treatment and the use of a transgenic plant is present. In this case, the actually observed kill rate must thus be higher than the value calculated using the formula above for the kill rate (E). […]
(§4) After a desired period of time, the kill in % is determined by counting the animals. […]

The test system of series [2] is armyworm (Spodoptera frugiperda). As to the kind of experiment: Spray treatment of transgenic maize lines against armyworm, kill in %, Colby synergy. It is filed as in vivo. The note with it: spirotetramate at 100 ppm by spray where applied.
Excerpt: as §1, §2, §3, §4

The test system of series [3] is armyworm (Spodoptera exigua). As to the kind of experiment: Spray treatment of transgenic maize lines against larvae of the armyworm, kill in %, Colby synergy. The class given is in vivo. The settings on record: spirotetramate at 100 ppm by spray where applied.
Excerpt: as §1, §2, §3, §4

A value given as a limit tells only on which side of the number the result lay.

One may read the melting point as the temperature of the solid-liquid transition. `COC1CCC2(CC1)NC(=O)C(c1cc(C)ccc1C)=C2O` (stereo not drawn) gave a melting point above 220 °C.

Compound `COC1CCC2(CC1)NC(=O)C(c1c(C)ccc(Br)c1C)=C2O` (stereo not drawn) displayed a melting point above 220 °C.

`COC1CCC2(CC1)NC(=O)C(c1c(C)ccc(Cl)c1C)=C2O` (stereo not drawn) displayed a melting point of 219 °C.

On to `CCOC(=O)OC1=C(c2cc(C)c(Cl)cc2C)C(=O)NC12CCC(OC)CC2` (stereo not drawn), for which the melting point was found to be 162 °C.

In turn, `COC1CCC2(CC1)NC(=O)C(c1c(C)cc(C)c(C)c1C)=C2O` (stereo not drawn) showed a melting point above 220 °C.

Turning to spirotetramate, the results for the “Kill in % after 4d (observed)” value in series [1], in series [2] (after 4 d) and in series [3] were 35%, 60% and 10%, respectively. The “Kill in % after 1d (observed)” value in series [2] (after 1 d) is on record as 0%.
